# Data: ChEMBL document CHEMBL1201862, “PubChem BioAssay data set” (2004)
#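 Cells were grown in 96-well plates and exposed to each compound for 48 hours at five concentrations; endpoints were interpolated linearly between bracketing concentrations, or set to the highest concentration if not reached. GI50 = concentration required for 50% inhibition of growth.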 Active and inactive are the calls of the source. Cut-off read from the data, not from the text of the source: active = GI50 up to about 1.1 µM and inactive = higher.
# How the values were obtained:
# Test in all cases: NCI tumour cell line growth inhibition, 48 h
# SW-620 = system: SW-620
# UACC-257 = system: UACC-257
# NCI-H522 = system: NCI-H522
# KM12 = system: KM12
# COLO 205 = system: COLO 205
# SF-295 = system: SF-295
# SK-MEL-2 = system: SK-MEL-2
# HCT-116 = system: HCT-116
# LOX IMVI = system: LOX IMVI
# OVCAR-4 = system: OVCAR-4
# K562 = system: K562
# SF-539 = system: SF-539
# OVCAR-5 = system: OVCAR-5
# SNB-19 = system: SNB-19
# SK-MEL-5 = system: SK-MEL-5
# 786-0 = system: 786-0
# SNB-75 = system: SNB-75
# U-251 = system: U-251
# OVCAR-3 = system: OVCAR-3
# MDA-N = system: MDA-N
Compound,GI50 (SW-620),GI50 (UACC-257),GI50 (NCI-H522),GI50 (KM12),GI50 (COLO 205),GI50 (SF-295),GI50 (SK-MEL-2),GI50 (HCT-116),GI50 (LOX IMVI),GI50 (OVCAR-4),GI50 (K562),GI50 (SF-539),GI50 (OVCAR-5),GI50 (SNB-19),GI50 (SK-MEL-5),GI50 (786-0),GI50 (SNB-75),GI50 (U-251),GI50 (OVCAR-3),GI50 (MDA-N)
CC(=O)OC1CCCn2c1nc1c2C(=O)C(C)=C(N2CC2)C1=O (stereo unspecified),0.167 µM (active),0.242 µM (active),0.156 µM (active),0.403 µM (active),0.535 µM (active),0.16 µM (active),0.277 µM (active),0.409 µM (active),0.303 µM (active),0.773 µM (active),0.891 µM (active),0.519 µM (active),0.356 µM (active),0.338 µM (active),0.185 µM (active),0.222 µM (active),0.301 µM (active),0.201 µM (active),0.329 µM (active),
COC(=O)CCC(=O)N1CC1C (stereo unspecified),> 100 µM (inactive),> 100 µM (inactive),> 100 µM (inactive),> 100 µM (inactive),> 100 µM (inactive),> 100 µM (inactive),> 100 µM (inactive),> 100 µM (inactive),> 100 µM (inactive),> 100 µM (inactive),> 100 µM (inactive),> 100 µM (inactive),> 100 µM (inactive),> 100 µM (inactive),> 100 µM (inactive),> 100 µM (inactive),> 100 µM (inactive),> 100 µM (inactive),> 100 µM (inactive),
BrC12c3ccccc3Sc3ccccc3C1(Br)c1ccccc12 (stereo unspecified),36.2 µM (inactive),22.3 µM (inactive),17.5 µM (inactive),19.9 µM (inactive),28.8 µM (inactive),23.7 µM (inactive),15.8 µM (inactive),22 µM (inactive),15.8 µM (inactive),33.1 µM (inactive),22.2 µM (inactive),18.3 µM (inactive),25.5 µM (inactive),32.7 µM (inactive),16.2 µM (inactive),34.5 µM (inactive),27.3 µM (inactive),17.7 µM (inactive),,
CCOc1ccc(NC(=O)C(=O)NO)cc1,> 100 µM (inactive),> 100 µM (inactive),> 100 µM (inactive),> 100 µM (inactive),> 100 µM (inactive),> 100 µM (inactive),> 100 µM (inactive),> 100 µM (inactive),> 100 µM (inactive),> 100 µM (inactive),> 100 µM (inactive),> 100 µM (inactive),> 100 µM (inactive),> 100 µM (inactive),> 100 µM (inactive),> 100 µM (inactive),> 100 µM (inactive),> 100 µM (inactive),> 100 µM (inactive),
NC(Cc1ccc(O)cn1)C(=O)NC(C(=O)O)c1ccccc1 (stereo unspecified),> 100 µM (inactive),> 100 µM (inactive),> 100 µM (inactive),> 100 µM (inactive),> 100 µM (inactive),> 100 µM (inactive),,> 100 µM (inactive),> 100 µM (inactive),> 100 µM (inactive),> 100 µM (inactive),> 100 µM (inactive),> 100 µM (inactive),> 100 µM (inactive),> 100 µM (inactive),> 100 µM (inactive),> 100 µM (inactive),> 100 µM (inactive),> 100 µM (inactive),> 100 µM (inactive)
c1ccc2c(CNCCCCCCNCc3cccc4ccccc34)cccc2c1,4.06 µM (inactive),1.74 µM (inactive),2.32 µM (inactive),3.66 µM (inactive),1.66 µM (inactive),12.2 µM (inactive),1.65 µM (inactive),1.99 µM (inactive),1.87 µM (inactive),14.7 µM (inactive),1.56 µM (inactive),1.82 µM (inactive),15.9 µM (inactive),,7.24 µM (inactive),13 µM (inactive),2.31 µM (inactive),10.7 µM (inactive),16.4 µM (inactive),
O=c1[nH]c(=O)n(C2OC(COP(=O)(O)OP(=O)(O)O)C(O)C2O)cc1F (stereo unspecified),0.171 µM (active),6.11 µM (inactive),2.48 µM (inactive),2.28 µM (inactive),1.57 µM (inactive),0.822 µM (active),6.79 µM (inactive),0.0643 µM (active),0.251 µM (active),1.23 µM (inactive),0.184 µM (active),0.594 µM (active),7 µM (inactive),0.743 µM (active),4.31 µM (inactive),0.239 µM (active),8.65 µM (inactive),0.391 µM (active),6.34 µM (inactive),
COC(=O)[C@H](Cc1c[nH]c2ccccc12)NP(=O)(O)OCC1C=CC(n2cc(C)c(=O)[nH]c2=O)O1 (stereo partly specified),> 100 µM (inactive),,,> 100 µM (inactive),> 100 µM (inactive),,> 100 µM (inactive),> 100 µM (inactive),> 100 µM (inactive),> 100 µM (inactive),> 100 µM (inactive),,,> 100 µM (inactive),> 100 µM (inactive),> 100 µM (inactive),> 100 µM (inactive),> 100 µM (inactive),> 100 µM (inactive),> 100 µM (inactive)
CC(=O)/C=C1\Nc2sc(C)c(C)c2C(=O)S1,63.5 µM (inactive),70 µM (inactive),,29.2 µM (inactive),> 100 µM (inactive),48 µM (inactive),24.2 µM (inactive),31.6 µM (inactive),44.6 µM (inactive),42.2 µM (inactive),60.4 µM (inactive),24.5 µM (inactive),> 100 µM (inactive),> 100 µM (inactive),41 µM (inactive),62.8 µM (inactive),24 µM (inactive),50.2 µM (inactive),44.1 µM (inactive),88.3 µM (inactive)
CC(C)=CCC/C(=C/CC/C(C)=C/CCc1ccoc1)C(=O)O,> 100 µM (inactive),> 100 µM (inactive),> 100 µM (inactive),> 100 µM (inactive),> 100 µM (inactive),> 100 µM (inactive),> 100 µM (inactive),> 100 µM (inactive),> 100 µM (inactive),> 100 µM (inactive),> 100 µM (inactive),> 100 µM (inactive),26.5 µM (inactive),> 100 µM (inactive),> 100 µM (inactive),> 100 µM (inactive),> 100 µM (inactive),> 100 µM (inactive),> 100 µM (inactive),
O=C(CC(=O)Nc1ccccc1)N/N=C/c1cc(/N=N/c2ccc(Br)cc2)ccc1O,4.84 µM (inactive),2.08 µM (inactive),,3.58 µM (inactive),3.93 µM (inactive),,,,4.28 µM (inactive),2.09 µM (inactive),2.96 µM (inactive),4.05 µM (inactive),,,8.79 µM (inactive),4 µM (inactive),> 10 µM (inactive),3.61 µM (inactive),,3.72 µM (inactive)
Cc1c(Cl)cccc1NC(=O)C(=O)C1C(=O)NC(=O)NC1=O,> 100 µM (inactive),> 100 µM (inactive),> 100 µM (inactive),> 100 µM (inactive),> 100 µM (inactive),> 100 µM (inactive),> 100 µM (inactive),> 100 µM (inactive),> 100 µM (inactive),> 100 µM (inactive),> 100 µM (inactive),> 100 µM (inactive),> 100 µM (inactive),> 100 µM (inactive),> 100 µM (inactive),> 100 µM (inactive),> 100 µM (inactive),> 100 µM (inactive),> 100 µM (inactive),
[O-][n+]1cc(SCc2ccccc2)ncc1SCc1ccccc1,,> 10 µM (inactive),> 10 µM (inactive),> 10 µM (inactive),> 10 µM (inactive),> 10 µM (inactive),> 10 µM (inactive),> 10 µM (inactive),> 10 µM (inactive),> 10 µM (inactive),> 10 µM (inactive),> 10 µM (inactive),> 10 µM (inactive),,> 10 µM (inactive),> 10 µM (inactive),> 10 µM (inactive),> 10 µM (inactive),> 10 µM (inactive),
O=C(O)c1cc(O)c2c(c1)Cc1cccc(O)c1C2=O,38.5 µM (inactive),26.7 µM (inactive),,,24.2 µM (inactive),20.3 µM (inactive),,23.9 µM (inactive),,38 µM (inactive),40 µM (inactive),,29.9 µM (inactive),28.6 µM (inactive),21.1 µM (inactive),30.5 µM (inactive),14.1 µM (inactive),17.6 µM (inactive),17.9 µM (inactive),> 10 µM (inactive)
O=C(CNc1ccccc1[N+](=O)[O-])Nn1c(-c2ccccc2)nc2ccccc2c1=O,19.1 µM (inactive),> 10 µM (inactive),> 10 µM (inactive),> 10 µM (inactive),20.6 µM (inactive),20.6 µM (inactive),,16.1 µM (inactive),11.2 µM (inactive),17 µM (inactive),16.3 µM (inactive),19.7 µM (inactive),22.3 µM (inactive),22.8 µM (inactive),10.4 µM (inactive),18.9 µM (inactive),11.3 µM (inactive),19.2 µM (inactive),29.4 µM (inactive),19.9 µM (inactive)
C[S+]([O-])c1ccc(COP(N)(=O)N(CCCl)CCCl)cc1 (stereo unspecified),> 100 µM (inactive),> 100 µM (inactive),> 100 µM (inactive),> 100 µM (inactive),> 100 µM (inactive),> 100 µM (inactive),> 100 µM (inactive),> 100 µM (inactive),> 100 µM (inactive),> 100 µM (inactive),> 100 µM (inactive),> 100 µM (inactive),> 100 µM (inactive),> 100 µM (inactive),> 100 µM (inactive),> 100 µM (inactive),> 100 µM (inactive),> 100 µM (inactive),> 100 µM (inactive),
